Measured values published in PubChem BioAssay AID2060907 (Molecular Pharmacology Branch, DTP, NCI, 2025).

Tested on: 388556-164-R-J1-PDC complex spheroid viability
Test: Anticancer human tumor 388556-164-R-J1-PDC patient-derived colon adenocarcinoma cell line growth inhibition [RAS]
Details: for IC50: curve of first compound; for viability, T/C: stronger effect = lower value
Method in brief: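 Agents were tested in combination matrices in half-log decrements from a top concentration at or near clinical Cmax (10 microM if undetermined). Targets were multi-cell spheroids of tumour lines plus HUVEC and MSC stromal cells.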

[1] = second compound 0.00316 µM, first compound 0.0316 µM
[2] = second compound 0.00316 µM, first compound 0.1 µM
[3] = second compound 0.00316 µM, first compound 0.316 µM
[4] = second compound 0.00316 µM, first compound 1 µM
[5] = second compound 0.00316 µM, first compound 3.16 µM
[6] = second compound 0.00316 µM, first compound 10 µM
[7] = second compound 0.01 µM, first compound 0.0316 µM
[8] = second compound 0.01 µM, first compound 0.1 µM
[9] = second compound 0.01 µM, first compound 0.316 µM
[10] = second compound 0.01 µM, first compound 1 µM
[11] = second compound 0.01 µM, first compound 3.16 µM
[12] = second compound 0.01 µM, first compound 10 µM
[13] = second compound 0.0316 µM, first compound 0.0316 µM
[14] = second compound 0.0316 µM, first compound 0.1 µM
[15] = second compound 0.0316 µM, first compound 0.316 µM
[16] = second compound 0.0316 µM, first compound 1 µM
[17] = second compound 0.0316 µM, first compound 3.16 µM
[18] = second compound 0.0316 µM, first compound 10 µM
[19] = second compound 0.1 µM, first compound 0.0316 µM
[20] = second compound 0.1 µM, first compound 0.1 µM
[21] = second compound 0.1 µM, first compound 0.316 µM
[22] = second compound 0.1 µM, first compound 1 µM
[23] = second compound 0.1 µM, first compound 3.16 µM
[24] = second compound 0.1 µM, first compound 10 µM
[25] = second compound 0.316 µM, first compound 0.0316 µM
[26] = second compound 0.316 µM, first compound 0.1 µM
[27] = second compound 0.316 µM, first compound 0.316 µM
[28] = second compound 0.316 µM, first compound 1 µM
[29] = second compound 0.316 µM, first compound 3.16 µM
[30] = second compound 0.316 µM, first compound 10 µM
[31] = second compound 1 µM, first compound 0.0316 µM
[32] = second compound 1 µM, first compound 0.1 µM
[33] = second compound 1 µM, first compound 0.316 µM
[34] = second compound 1 µM, first compound 1 µM
[35] = second compound 1 µM, first compound 3.16 µM
[36] = second compound 1 µM, first compound 10 µM
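Further: spheroids exposed to compound for 7 days before readout.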
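Wherever viability, T/C is given: 100% = DMSO vehicle control luminescence.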

## CC1(O)CCCC1n1c(=O)c(C(F)F)cc2cnc(NC3CCN(S(C)(=O)=O)CC3)nc21 (stereo not given) + C=CC(=O)N1CCN(c2nc(OCC3CCCN3C)nc3c(F)c(-c4nc(N)cc(C)c4C(F)(F)F)c(Cl)cc23)C(C)C1
Second compound 0.00316 µM
  IC50: > 10000 nM
Second compound 0.01 µM
  IC50: > 10000 nM
Second compound 0.0316 µM
  IC50: > 10000 nM
Second compound 0.1 µM
  IC50: > 10000 nM
Second compound 0.316 µM
  IC50: > 10000 nM
Second compound 1 µM
  IC50: > 10000 nM
[1]
  viability, T/C: 98.3%
[2]
  viability, T/C: 103%
[3]
  viability, T/C: 105%
[4]
  viability, T/C: 99.8%
[5]
  viability, T/C: 109%
[6]
  viability, T/C: 73.5%
[7]
  viability, T/C: 93.7%
[8]
  viability, T/C: 107%
[9]
  viability, T/C: 101%
[10]
  viability, T/C: 98.9%
[11]
  viability, T/C: 105%
[12]
  viability, T/C: 77.2%
[13]
  viability, T/C: 101%
[14]
  viability, T/C: 104%
[15]
  viability, T/C: 102%
[16]
  viability, T/C: 108%
[17]
  viability, T/C: 115%
[18]
  viability, T/C: 81%
[19]
  viability, T/C: 103%
[20]
  viability, T/C: 108%
[21]
  viability, T/C: 99.5%
[22]
  viability, T/C: 99.2%
[23]
  viability, T/C: 102%
[24]
  viability, T/C: 76%
[25]
  viability, T/C: 102%
[26]
  viability, T/C: 91.7%
[27]
  viability, T/C: 96.9%
[28]
  viability, T/C: 97.7%
[29]
  viability, T/C: 101%
[30]
  viability, T/C: 75.3%
[31]
  viability, T/C: 98.7%
[32]
  viability, T/C: 102%
[33]
  viability, T/C: 100%
[34]
  viability, T/C: 111%
[35]
  viability, T/C: 104%
[36]
  viability, T/C: 68.7%

## CCC(CC)c1cc(NC2CCC(N)C2)n2nccc2n1 (stereo not given) + C=CC(=O)N1CCN(c2nc(OCC3CCCN3C)nc3c(F)c(-c4nc(N)cc(C)c4C(F)(F)F)c(Cl)cc23)C(C)C1
Second compound 0.00316 µM
  IC50: 2730 nM
Second compound 0.01 µM
  IC50: 2700 nM
Second compound 0.0316 µM
  IC50: 2770 nM
Second compound 0.1 µM
  IC50: 2470 nM
Second compound 0.316 µM
  IC50: 2460 nM
Second compound 1 µM
  IC50: 2340 nM
[1]
  viability, T/C: 98.2%
[2]
  viability, T/C: 98.6%
[3]
  viability, T/C: 106%
[4]
  viability, T/C: 93.9%
[5]
  viability, T/C: 43.6%
[6]
  viability, T/C: 29.6%
[7]
  viability, T/C: 97.2%
[8]
  viability, T/C: 109%
[9]
  viability, T/C: 102%
[10]
  viability, T/C: 96%
[11]
  viability, T/C: 42.6%
[12]
  viability, T/C: 27.8%
[13]
  viability, T/C: 96%
[14]
  viability, T/C: 104%
[15]
  viability, T/C: 106%
[16]
  viability, T/C: 101%
[17]
  viability, T/C: 43.3%
[18]
  viability, T/C: 29.9%
[19]
  viability, T/C: 97.5%
[20]
  viability, T/C: 95.9%
[21]
  viability, T/C: 102%
[22]
  viability, T/C: 98.2%
[23]
  viability, T/C: 36.8%
[24]
  viability, T/C: 26.5%
[25]
  viability, T/C: 104%
[26]
  viability, T/C: 112%
[27]
  viability, T/C: 109%
[28]
  viability, T/C: 105%
[29]
  viability, T/C: 34.6%
[30]
  viability, T/C: 28.5%
[31]
  viability, T/C: 98.6%
[32]
  viability, T/C: 100%
[33]
  viability, T/C: 109%
[34]
  viability, T/C: 111%
[35]
  viability, T/C: 30.7%
[36]
  viability, T/C: 27.6%

## CCN1CCN(Cc2ccc(Nc3ncc(F)c(-c4cc(F)c5nc(C)n(C(C)C)c5c4)n3)nc2)CC1 + C=CC(=O)N1CCN(c2nc(OCC3CCCN3C)nc3c(F)c(-c4nc(N)cc(C)c4C(F)(F)F)c(Cl)cc23)C(C)C1
Second compound 0.00316 µM
  IC50: > 1000 nM
Second compound 0.01 µM
  IC50: > 1000 nM
Second compound 0.0316 µM
  IC50: > 1000 nM
Second compound 0.1 µM
  IC50: > 1000 nM
Second compound 0.316 µM
  IC50: > 1000 nM
Second compound 1 µM
  IC50: > 1000 nM
Second compound 0.00316 µM, first compound 0.00316 µM
  viability, T/C: 111%
Second compound 0.00316 µM, first compound 0.01 µM
  viability, T/C: 104%
[1]
  viability, T/C: 93.1%
[2]
  viability, T/C: 88.8%
[3]
  viability, T/C: 104%
[4]
  viability, T/C: 98.3%
Second compound 0.01 µM, first compound 0.00316 µM
  viability, T/C: 97.5%
Second compound 0.01 µM, first compound 0.01 µM
  viability, T/C: 101%
[7]
  viability, T/C: 93%
[8]
  viability, T/C: 95.6%
[9]
  viability, T/C: 96.2%
[10]
  viability, T/C: 89.4%
Second compound 0.0316 µM, first compound 0.00316 µM
  viability, T/C: 100%
Second compound 0.0316 µM, first compound 0.01 µM
  viability, T/C: 101%
[13]
  viability, T/C: 95.4%
[14]
  viability, T/C: 93%
[15]
  viability, T/C: 98.3%
[16]
  viability, T/C: 87.8%
Second compound 0.1 µM, first compound 0.00316 µM
  viability, T/C: 106%
Second compound 0.1 µM, first compound 0.01 µM
  viability, T/C: 105%
[19]
  viability, T/C: 90.3%
[20]
  viability, T/C: 88.9%
[21]
  viability, T/C: 91.5%
[22]
  viability, T/C: 84.5%
Second compound 0.316 µM, first compound 0.00316 µM
  viability, T/C: 105%
Second compound 0.316 µM, first compound 0.01 µM
  viability, T/C: 100%
[25]
  viability, T/C: 98.2%
[26]
  viability, T/C: 89.7%
[27]
  viability, T/C: 91.8%
[28]
  viability, T/C: 84.3%
Second compound 1 µM, first compound 0.00316 µM
  viability, T/C: 102%
Second compound 1 µM, first compound 0.01 µM
  viability, T/C: 104%
[31]
  viability, T/C: 100%
[32]
  viability, T/C: 93%
[33]
  viability, T/C: 79.7%
[34]
  viability, T/C: 94%

## C[C@@H](NC(=O)c1ncnc(N)c1Cl)c1ncc(C(=O)Nc2cc(C(F)(F)F)c(Cl)cn2)s1 + C=CC(=O)N1CCN(c2nc(OCC3CCCN3C)nc3c(F)c(-c4nc(N)cc(C)c4C(F)(F)F)c(Cl)cc23)C(C)C1
Second compound 0.00316 µM
  IC50: > 10000 nM
Second compound 0.01 µM
  IC50: > 10000 nM
Second compound 0.0316 µM
  IC50: > 10000 nM
Second compound 0.1 µM
  IC50: > 10000 nM
Second compound 0.316 µM
  IC50: > 10000 nM
Second compound 1 µM
  IC50: > 10000 nM
[1]
  viability, T/C: 111%
[2]
  viability, T/C: 114%
[3]
  viability, T/C: 133%
[4]
  viability, T/C: 111%
[5]
  viability, T/C: 112%
[6]
  viability, T/C: 104%
[7]
  viability, T/C: 111%
[8]
  viability, T/C: 115%
[9]
  viability, T/C: 121%
[10]
  viability, T/C: 114%
[11]
  viability, T/C: 119%
[12]
  viability, T/C: 98.4%
[13]
  viability, T/C: 111%
[14]
  viability, T/C: 118%
[15]
  viability, T/C: 116%
[16]
  viability, T/C: 117%
[17]
  viability, T/C: 128%
[18]
  viability, T/C: 101%
[19]
  viability, T/C: 109%
[20]
  viability, T/C: 109%
[21]
  viability, T/C: 110%
[22]
  viability, T/C: 117%
[23]
  viability, T/C: 117%
[24]
  viability, T/C: 91.8%
[25]
  viability, T/C: 126%
[26]
  viability, T/C: 122%
[27]
  viability, T/C: 113%
[28]
  viability, T/C: 125%
[29]
  viability, T/C: 122%
[30]
  viability, T/C: 97.1%
[31]
  viability, T/C: 119%
[32]
  viability, T/C: 116%
[33]
  viability, T/C: 127%
[34]
  viability, T/C: 133%
[35]
  viability, T/C: 119%
[36]
  viability, T/C: 97.7%

## Cc1nc(N2CCC3(CC2)COC(C)C3N)c(CO)nc1Sc1ccnc(N)c1Cl (stereo not given) + C=CC(=O)N1CCN(c2nc(OCC3CCCN3C)nc3c(F)c(-c4nc(N)cc(C)c4C(F)(F)F)c(Cl)cc23)C(C)C1
Second compound 0.00316 µM
  IC50: 2820 nM
Second compound 0.01 µM
  IC50: 3770 nM
Second compound 0.0316 µM
  IC50: 6520 nM
Second compound 0.1 µM
  IC50: 3060 nM
Second compound 0.316 µM
  IC50: 3340 nM
Second compound 1 µM
  IC50: 1520 nM
[1]
  viability, T/C: 88.3%
[2]
  viability, T/C: 83.7%
[3]
  viability, T/C: 72.8%
[4]
  viability, T/C: 58.3%
[5]
  viability, T/C: 49.2%
[6]
  viability, T/C: 45.3%
[7]
  viability, T/C: 94.7%
[8]
  viability, T/C: 82.4%
[9]
  viability, T/C: 75.7%
[10]
  viability, T/C: 61.7%
[11]
  viability, T/C: 49.7%
[12]
  viability, T/C: 43.7%
[13]
  viability, T/C: 86.1%
[14]
  viability, T/C: 79.9%
[15]
  viability, T/C: 73.3%
[16]
  viability, T/C: 63.3%
[17]
  viability, T/C: 55.3%
[18]
  viability, T/C: 47%
[19]
  viability, T/C: 95.5%
[20]
  viability, T/C: 83.5%
[21]
  viability, T/C: 70.5%
[22]
  viability, T/C: 60.9%
[23]
  viability, T/C: 49.6%
[24]
  viability, T/C: 40.6%
[25]
  viability, T/C: 97.7%
[26]
  viability, T/C: 78%
[27]
  viability, T/C: 70.9%
[28]
  viability, T/C: 63.8%
[29]
  viability, T/C: 54.1%
[30]
  viability, T/C: 36.9%
[31]
  viability, T/C: 91.2%
[32]
  viability, T/C: 92.5%
[33]
  viability, T/C: 68.5%
[34]
  viability, T/C: 56.7%
[35]
  viability, T/C: 42.3%
[36]
  viability, T/C: 39.8%
